The record followed here is patent US6169116A, “Amino-tetralines, pharmaceutical compositions containing them and their pharmaceutical uses” (Novartis AG, priority 1995, dated 2001).

In test [1] the test system is veratridine-induced glutamate release in rat hippocampal slice preparations. Briefly: veratridine-induced glutamate release in rat hippocampal slice preparations. The test is classed as cell-based. The note with it: for IC50: Rattus norvegicus, read-out: IC50, block of veratridine-induced glutamate release. As for the experimental part: (§1) The agents of the invention display binding to the veratridine-sensitive sodium channel with IC50 S of from about 0.1 to about 100 μM. For the binding procedure see for example J. B. Brown, Journal of Neuroscience 6, 2064-2070 (1986). They block veratridine-induced glutamate release in rat hippocampal slice preparations at concentrations of about 0.1-1 μM.
The experiment is performed according to a modification of M. J. Leach et al. in Epilepsia 27, 490-497 (1986) and Stroke 24, 1063-1067 (1993), using exogenous glutamate.

For test [2], the system named is ischemia-induced neuronal damage (infarct size). The test can be described thus: middle cerebral artery (MCA) occlusion model in rats. The format is in vivo. As for the experimental part:
Furthermore, the agents of the invention reduce ischemia-induced neuronal damage and ensuing symptoms in the middle cerebral artery (MCA) occlusion model in rats at a dosage of 1-30 mg/kg i.p, i.v. and p.o. [cf. A. Tamura et al., J. Cereb. Blood Flow Metabol. 1, 53-60 (1981)), A. Sauter, M. Rudin, Stroke 17, 1228-1234 (1986)].
(§2) For all these indications the preferred compound is (R)-1,2,3,4-tetrahydro-8-methoxy-N,N-dimethyl-5-[4-(trifluoromethyl)phenyl]-2-naphthaleneamine, which is the compound of example 21. It has for example been determined that in the above mentioned electroshock model, this compound provides protection against maximal electroshock-induced convulsions with a threshold dose of 10 mg/kg p.o. for periods up to 8 hours post-administration.

The target of test [3] is veratridine-sensitive sodium channel. Briefly: binding to the veratridine-sensitive sodium channel. The note with it: read-out: IC50, affinity for the veratridine binding site. As for the experimental part:
as §1

The subject of test [4] is maximal electroshock-induced convulsions. Briefly: protection against maximal electroshock-induced convulsions in mice. The format is in vivo. The method, then: The agents of the invention provide long-lasting protection against maximal electroshock-induced convulsions in mice at doses of about 1 to 100 mg/kg p.o. and about 0.32 to 32 mg/kg i.p. [cf. E. A. Swinyard, J. Am. Pharm. Assoc. Scient. Ed. 38, 201 (1949) and J. Pharmacol. Exptl. Therap. 106, 319 (1952)].
as §2
In general terms: Protection in the maximal electroshock model is a classic sign of anticonvulsant action.

Setting [5] is: 10 mg/kg i.p., immediately after occlusion.

The structures appear in SMILES notation.

In general, IC50 refers to the point on the concentration scale where inhibition reaches its midpoint. Take `COc1ccc(-c2ccc(C(F)(F)F)cc2)c2c1C[C@H](N(C)C)CC2` [Example 21, (R)-1,2,3,4-tetrahydro-8-methoxy-N,N-dimethyl-5-[4-(trifluoromethyl)phenyl]-2-naphthaleneamine]: the half-maximal inhibitory concentration (IC50) in test [1] amounted to 0.5 µM; in test [3], 0.125 µM. Besides, the “potency relative to Lifarizine in the veratridine-induced glutamate release test” value in test [1] (compared with Lifarizine) was “about equipotent to Lifarizine”. In addition, the infarct size reduction in test [2] (3.2 mg/kg i.p. immediately after occlusion) amounted to 19%; in test [2] (setting [5]), 43%; in test [2] (32 mg/kg i.p. immediately after occlusion), 53%. Besides, the minimal effective dose in test [4] (Mus musculus, po, read-out: threshold dose for protection against maximal electroshock-induced convulsions) turned out to be 10 mg/kg. The “period of protection against maximal electroshock-induced convulsions post-administration” value in test [4] (p.o., threshold dose 10 mg/kg) is recorded as “up to 8 hours”.

`Nc1nnc(-c2cccc(Cl)c2Cl)c(N)n1` [Lamotrigine, reference compound]: in test [1], the 50% inhibitory concentration (IC50) worked out at 20 µM.

Regarding `Nc1nc2ccc(OC(F)(F)F)cc2s1` [Riluzole, reference compound], the IC50 in test [1] stood at 5 µM.

As to `Cc1ccc(-c2nc(C)c(CN3CCN(C(c4ccccc4)c4ccccc4)CC3)[nH]2)cc1` [Lifarizine, reference compound], in test [2] (setting [5]), the infarct size reduction is 25%.
